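The compound was tested at five concentrations on cells cultured in 96-well plates, with a 48-hour exposure period. GI50: concentration for 50% inhibition of growth.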 Activity calls are given as the source filed them. Cut-off read from the data, not from the text of the source: active = GI50 up to about 1.1 µM and inactive = higher.
Tests used:
Assay in all cases: NCI tumour cell line growth inhibition, 48 h
ACHN = tested on: ACHN
BT-549 = tested on: BT-549
CAKI-1 = tested on: CAKI-1
DU-145 = tested on: DU-145
HCC 2998 = tested on: HCC 2998
HOP-62 = tested on: HOP-62
HT-29 = tested on: HT-29
IGROV-1 = tested on: IGROV-1
LOX IMVI = tested on: LOX IMVI
MCF7 = tested on: MCF7
MOLT-4 = tested on: MOLT-4
NCI-H460 = tested on: NCI-H460
RPMI-8226 = tested on: RPMI-8226
RXF 393 = tested on: RXF 393
SK-MEL-28 = tested on: SK-MEL-28
SK-MEL-2 = tested on: SK-MEL-2
UO-31 = tested on: UO-31
HL-60 = tested on: HL-60
HOP-92 = tested on: HOP-92
SF-539 = tested on: SF-539

Measured: GI50

Cc1nc2ccc(/N=N/N(C)C)cc2[nH]1
inactive: ACHN > 100 µM | BT-549 86.5 µM | CAKI-1 > 100 µM | DU-145 > 100 µM | HCC 2998 > 100 µM | HOP-62 > 100 µM | HT-29 > 100 µM | IGROV-1 > 100 µM | LOX IMVI > 100 µM | MCF7 > 100 µM | MOLT-4 > 100 µM | NCI-H460 > 100 µM | RPMI-8226 > 100 µM | RXF 393 > 100 µM | SK-MEL-28 > 100 µM | SK-MEL-2 > 100 µM | UO-31 > 100 µM

O=C1N[C@@H]2O[C@H](CNC(=O)c3cc(Br)c[nH]3)C[C@]2(O)N1.O=C1N[C@H]2O[C@H](CNC(=O)c3cc(Br)c[nH]3)C[C@@]2(O)N1
inactive: ACHN > 100 µM | BT-549 > 100 µM | CAKI-1 > 100 µM | DU-145 > 100 µM | HL-60 > 100 µM | HOP-62 > 100 µM | HOP-92 > 100 µM | HT-29 > 100 µM | IGROV-1 > 100 µM | MCF7 > 100 µM | MOLT-4 > 100 µM | NCI-H460 > 100 µM | RPMI-8226 > 100 µM | SF-539 > 100 µM | SK-MEL-28 > 100 µM | SK-MEL-2 > 100 µM | UO-31 > 100 µM

CNc1ccc(C)cc1S(=O)(=O)c1ccccc1[N+](=O)[O-]
inactive: ACHN 30.8 µM | BT-549 46.6 µM | DU-145 > 100 µM | HCC 2998 92.5 µM | HL-60 > 10 µM | HOP-62 58.9 µM | HT-29 48.1 µM | IGROV-1 58.5 µM | LOX IMVI 30.9 µM | MCF7 30 µM | MOLT-4 18.4 µM | NCI-H460 51.1 µM | RPMI-8226 49.4 µM | RXF 393 > 100 µM | SF-539 > 100 µM | SK-MEL-28 38.8 µM | SK-MEL-2 62.4 µM | UO-31 52.5 µM

Nc1c(S(=O)(=O)O)cc(S(=O)(=O)O)c2ccc(/N=N/c3ccccc3)c(O)c12
inactive: ACHN > 100 µM | BT-549 > 100 µM | CAKI-1 > 100 µM | DU-145 > 100 µM | HL-60 > 100 µM | HOP-62 > 100 µM | HOP-92 > 100 µM | HT-29 > 100 µM | IGROV-1 > 100 µM | LOX IMVI > 100 µM | MCF7 > 100 µM | NCI-H460 > 100 µM | RPMI-8226 > 100 µM | RXF 393 > 100 µM | SF-539 > 100 µM | SK-MEL-28 > 100 µM | SK-MEL-2 > 100 µM | UO-31 > 100 µM

CC(C)(C)OC(=O)N/N=C(/N)c1ccccc1
inactive: ACHN > 100 µM | BT-549 > 100 µM | CAKI-1 > 100 µM | DU-145 > 100 µM | HCC 2998 > 100 µM | HL-60 6.55 µM | HOP-62 > 100 µM | HT-29 > 100 µM | IGROV-1 > 100 µM | LOX IMVI > 100 µM | MCF7 > 100 µM | MOLT-4 > 100 µM | NCI-H460 > 100 µM | RPMI-8226 > 100 µM | RXF 393 > 100 µM | SF-539 > 100 µM | SK-MEL-28 > 100 µM | SK-MEL-2 > 100 µM | UO-31 > 100 µM

O=c1[nH]c2ccccc2c(=O)n1/N=C/c1ccc(O)cc1
inactive: ACHN > 100 µM | BT-549 64.3 µM | CAKI-1 > 100 µM | DU-145 > 100 µM | HL-60 > 100 µM | HOP-62 20.9 µM | HOP-92 26.1 µM | HT-29 > 100 µM | IGROV-1 > 100 µM | LOX IMVI 60.4 µM | MCF7 > 100 µM | MOLT-4 > 100 µM | NCI-H460 > 100 µM | RPMI-8226 > 100 µM | SF-539 66.5 µM | SK-MEL-28 > 100 µM | SK-MEL-2 66.7 µM | UO-31 > 100 µM

O=C(/C=C/C=C/c1ccccc1)c1ccc2c(c1)CCCC2
inactive: ACHN 70.8 µM | BT-549 26 µM | CAKI-1 74.3 µM | DU-145 25.5 µM | HCC 2998 23 µM | HOP-62 91.6 µM | HOP-92 30 µM | HT-29 28.4 µM | IGROV-1 42.8 µM | LOX IMVI 30.1 µM | MCF7 32 µM | MOLT-4 25.9 µM | RPMI-8226 24.4 µM | SF-539 54.5 µM | SK-MEL-28 > 100 µM | SK-MEL-2 83.2 µM | UO-31 61 µM

COc1ccc(O[C@H](COCc2ccccc2)C[C@@H]2COC(C)(C)O2)cc1
inactive: ACHN > 100 µM | BT-549 > 100 µM | CAKI-1 > 100 µM | DU-145 > 100 µM | HCC 2998 > 100 µM | HOP-62 > 100 µM | HT-29 > 100 µM | IGROV-1 > 100 µM | LOX IMVI > 100 µM | MCF7 > 100 µM | MOLT-4 > 100 µM | NCI-H460 > 100 µM | RPMI-8226 > 100 µM | RXF 393 > 100 µM | SF-539 > 100 µM | SK-MEL-28 > 100 µM | SK-MEL-2 > 100 µM | UO-31 > 100 µM

CC[C@@]1(C[C@H]2C[C@@]3(C(=O)OC)c4[nH]c5ccccc5c4CCN3C2=O)COC2(CCCCC2)O1
inactive: ACHN 30.9 µM | BT-549 47.9 µM | CAKI-1 36.2 µM | DU-145 41.8 µM | HCC 2998 21.2 µM | HL-60 18.9 µM | HOP-62 22.3 µM | HT-29 27.4 µM | IGROV-1 43.9 µM | LOX IMVI 32.8 µM | MCF7 25.5 µM | MOLT-4 16.6 µM | NCI-H460 24.3 µM | RXF 393 19.5 µM | SF-539 35.1 µM | SK-MEL-2 32.2 µM | UO-31 18.1 µM

CCCCC1Cc2cc(OC)ccc2-c2nc3cc(OC)ccc3n21.CCCCC1Cc2cc(OC)ccc2-c2nc3ccc(OC)cc3n21 (stereo not given)
inactive: ACHN 15.2 µM | BT-549 18.8 µM | CAKI-1 15.6 µM | DU-145 16.4 µM | HL-60 13.8 µM | HOP-62 15.7 µM | HOP-92 2.06 µM | HT-29 10.7 µM | IGROV-1 11.1 µM | LOX IMVI 16.4 µM | MCF7 17.2 µM | MOLT-4 10.2 µM | NCI-H460 15.4 µM | RPMI-8226 6.81 µM | RXF 393 17 µM | SF-539 16.1 µM | UO-31 12.3 µM

O=C1c2c(Br)sc(Br)c2[C@@H](Cl)[C@H]1Cl
inactive: ACHN 19.2 µM | BT-549 20.6 µM | CAKI-1 20.7 µM | DU-145 18.7 µM | HL-60 3.27 µM | HOP-62 17.9 µM | HOP-92 21 µM | HT-29 28.4 µM | IGROV-1 17.7 µM | LOX IMVI 15.2 µM | MCF7 21.5 µM | MOLT-4 14.9 µM | NCI-H460 19.4 µM | RPMI-8226 18.2 µM | RXF 393 15.5 µM | SF-539 12.5 µM | SK-MEL-28 23.3 µM | SK-MEL-2 18.9 µM | UO-31 20.2 µM
